Assay results: ChEMBL document CHEMBL4819064, “Discovery of new pyrimidopyrrolizine/indolizine-based derivatives as P-glycoprotein inhibitors: Design, synthesis, cytotoxicity, and MDR reversal activities” (Eur J Med Chem, 2021)

How the values were obtained:
NCI/ADR-RES [1] = assay: Cytotoxicity against human MCF7/ADR cells assessed as reduction in cell viability incubated for 72 hrs by MTT assay
MCF7 [2] = assay: Induction of apoptosis in human MCF7 cells assessed as early apoptotic cells at 0.125 uM after 72 hrs by Annexin V-FITC/propidium iodide staining-based flow cytometric analysis (reference value: 4.6 %); format: functional
MCF7 [3] = assay: Cell cycle arrest in human MCF7 cells assessed as accumulation at G2/M phase at 0.125 uM incubated for […] staining based flow cytometric analysis (reference value: 15 +/- 1.5 %); format: functional
MCF7 [4] = assay: Induction of apoptosis in human MCF7 cells assessed as necrotic cells at 0.125 uM after 72 hrs by Annexin V-FITC/propidium iodide staining-based flow cytometric analysis (reference value: 6.2 %); format: functional
[5] = target: T1, ATP-dependent translocase ABCB1 (Homo sapiens, UniProt P08183); assay: Inhibition of P-gp activity in human MCF7/ADR cells after 72 hrs by RT-PCR analysis; format: cell-based; conditions: nci/adr-res, at 125 to 1000 nM, dose 125-1000 nM
T1 sequence (P08183 whole entry): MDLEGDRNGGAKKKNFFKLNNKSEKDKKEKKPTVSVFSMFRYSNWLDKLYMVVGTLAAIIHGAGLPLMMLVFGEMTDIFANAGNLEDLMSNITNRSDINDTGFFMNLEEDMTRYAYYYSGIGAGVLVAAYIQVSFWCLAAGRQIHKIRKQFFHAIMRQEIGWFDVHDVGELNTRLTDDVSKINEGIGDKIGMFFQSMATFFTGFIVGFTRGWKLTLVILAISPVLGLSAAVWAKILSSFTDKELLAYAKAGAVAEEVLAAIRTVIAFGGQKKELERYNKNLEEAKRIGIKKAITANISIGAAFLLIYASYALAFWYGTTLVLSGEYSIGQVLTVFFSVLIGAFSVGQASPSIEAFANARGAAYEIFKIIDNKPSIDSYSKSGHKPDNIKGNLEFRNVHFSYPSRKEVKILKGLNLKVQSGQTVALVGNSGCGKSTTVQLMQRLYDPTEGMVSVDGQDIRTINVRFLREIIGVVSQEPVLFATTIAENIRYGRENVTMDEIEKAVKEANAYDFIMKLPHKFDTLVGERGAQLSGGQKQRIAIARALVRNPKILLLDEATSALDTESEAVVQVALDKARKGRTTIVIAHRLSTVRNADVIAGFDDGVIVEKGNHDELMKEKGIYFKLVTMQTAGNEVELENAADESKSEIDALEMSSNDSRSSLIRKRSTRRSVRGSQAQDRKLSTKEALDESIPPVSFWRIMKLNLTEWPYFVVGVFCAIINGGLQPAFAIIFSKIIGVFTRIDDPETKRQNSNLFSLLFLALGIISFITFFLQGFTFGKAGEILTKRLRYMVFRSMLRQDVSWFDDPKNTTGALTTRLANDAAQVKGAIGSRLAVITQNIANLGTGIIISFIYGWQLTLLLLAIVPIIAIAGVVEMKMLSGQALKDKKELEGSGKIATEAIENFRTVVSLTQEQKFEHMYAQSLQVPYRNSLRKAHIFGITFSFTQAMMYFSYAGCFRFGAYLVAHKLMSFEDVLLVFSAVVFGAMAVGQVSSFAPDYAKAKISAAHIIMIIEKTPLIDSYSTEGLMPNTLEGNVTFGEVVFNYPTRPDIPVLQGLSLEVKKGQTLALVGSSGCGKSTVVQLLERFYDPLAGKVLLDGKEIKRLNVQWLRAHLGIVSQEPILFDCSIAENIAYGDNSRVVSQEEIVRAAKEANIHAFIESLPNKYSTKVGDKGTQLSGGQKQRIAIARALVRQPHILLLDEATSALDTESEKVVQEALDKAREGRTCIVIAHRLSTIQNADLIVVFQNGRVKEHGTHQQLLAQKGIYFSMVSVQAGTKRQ

MCF7 [6] = assay: Cell cycle arrest in human MCF7 cells assessed as accumulation at G1 phase at 0.125 uM incubated for 72 hrs by PI staining based flow cytometric analysis (reference value: 56.9 +/- 5.6 %); format: functional
HT-29 = assay: Cytotoxicity against human HT29 cells assessed as reduction in cell viability incubated for 72 hrs by MTT assay; conditions: HT-29, 72 h
MCF7 [7] = assay: Cell cycle arrest in human MCF7 cells assessed as accumulation at G1 phase at 0.250 uM incubated for 72 hrs by PI staining based flow cytometric analysis (reference value: 56.9 +/- 5.6 %); format: functional; conditions: dose 0.25 µM
MCF7 [8] = assay: Induction of apoptosis in human MCF7 cells assessed as late apoptotic cells at 0.5 uM after 72 hrs by Annexin V-FITC/propidium iodide staining-based flow cytometric analysis (reference value: 2.8 %); format: functional
[9] = target: T1, ATP-dependent translocase ABCB1; assay: Inhibition of P-gp activity in human MCF7/ADR cells at 250 nM after 72 hrs by RT-PCR analysis relative to control; format: cell-based, NCI/ADR-RES; conditions: nci/adr-res, 72 h, 0.25 µM
NCI/ADR-RES [10] = assay: Synergistic cytotoxicity against human MCF7/ADR cells assessed as combination index at 0.5 uM after 72 hrs in presence of 0.5 uM doxorubicin by MTT assay; format: functional
MCF7 [11] = assay: Induction of apoptosis in human MCF7 cells assessed as necrotic cells at 0.5 uM after 72 hrs by Annexin V-FITC/propidium iodide staining-based flow cytometric analysis (reference value: 6.2 %); format: functional
MCF7 [12] = assay: Induction of apoptosis in human MCF7 cells assessed as viable cells at 0.125 uM after 72 hrs by Annexin V-FITC/propidium iodide staining-based flow cytometric analysis (reference value: 86.4 %); format: functional; conditions: read-out: Activity
NCI/ADR-RES [13] = assay: Synergistic cytotoxicity against human MCF7/ADR cells assessed as combination index at 0.5 uM after 72 hrs in presence of 1 uM doxorubicin by MTT assay; format: functional
MCF7 [14] = assay: Induction of apoptosis in human MCF7 cells assessed as late apoptotic cells at 0.250 uM after 72 hrs by Annexin V-FITC/propidium iodide staining-based flow cytometric analysis (reference value: 2.8 %); format: functional; conditions: dose 0.25 µM
[15] = target: T1, ATP-dependent translocase ABCB1; assay: Inhibition of P-gp activity in human MCF7/ADR cells at 500 nM after 72 hrs by RT-PCR analysis relative to control; format: cell-based, NCI/ADR-RES; conditions: nci/adr-res, 72 h, 0.5 µM
[16] = Selectivity index, ratio of IC50 for human MRC5 cells to IC50 for human MCF7 cells; format: toxicity; conditions: MRC5 cells versus MCF7 cells, read-out: Ratio IC50
NCI/ADR-RES [17] = assay: Synergistic cytotoxicity against human MCF7/ADR cells assessed as combination index at 1 uM after 72 hrs in presence of 0.25 uM doxorubicin by MTT assay; format: functional
NCI/ADR-RES [18] = assay: Synergistic cytotoxicity against human MCF7/ADR cells assessed as combination index at 0.25 uM after 72 hrs in presence of 1 uM doxorubicin by MTT assay; format: functional
NCI/ADR-RES [19] = assay: Synergistic cytotoxicity against human MCF7/ADR cells assessed as combination index at 1 uM after 72 hrs in presence of 0.5 uM doxorubicin by MTT assay; format: functional
[20] = Reversal of multidrug resistant activity in human MCF7/ADR cells assessed as reversal fold after 72 hrs by MTT assay; format: functional, NCI/ADR-RES
MCF7 [21] = assay: Cell cycle arrest in human MCF7 cells assessed as accumulation at G2/M phase at 0.250 uM incubated for 72 hrs by PI staining based flow cytometric analysis (reference value: 15 +/- 1.5 %); format: functional; conditions: dose 0.25 µM
MCF7 [22] = assay: Cell cycle arrest in human MCF7 cells assessed as accumulation at pre-G1 phase at 0.5 uM incubated for 72 hrs by PI staining based flow cytometric analysis (reference value: 1.6 +/- 0.2 %); format: functional
MCF7 [23] = assay: Cell cycle arrest in human MCF7 cells assessed as accumulation at G2/M phase at 0.5 uM incubated for 72 hrs by PI staining based flow cytometric analysis (reference value: 15 +/- 1.5 %); format: functional
NCI/ADR-RES [24] = assay: Cytotoxicity against human MCF7/ADR cells assessed as reduction in cell viability incubated for 72 hrs in presence of doxorubicin by MTT assay; format: functional, cell-based
MCF7 [25] = assay: Cell cycle arrest in human MCF7 cells assessed as accumulation at pre-G1 phase at 0.250 uM incubated for 72 hrs by PI staining based flow cytometric analysis (reference value: 1.6 +/- 0.2 %); format: functional; conditions: dose 0.25 µM
MCF7 [26] = assay: Induction of apoptosis in human MCF7 cells assessed as late apoptotic cells at 0.125 uM after 72 hrs by Annexin V-FITC/propidium iodide staining-based flow cytometric analysis (reference value: 2.8 %); format: functional
MCF7 [27] = assay: Induction of apoptosis in human MCF7 cells assessed as early apoptotic cells at 0.5 uM after 72 hrs by Annexin V-FITC/propidium iodide staining-based flow cytometric analysis (reference value: 4.6 %); format: functional
MCF7 [28] = assay: Cell cycle arrest in human MCF7 cells assessed as accumulation at pre-G1 phase at 0.125 uM incubated for 72 hrs by PI staining based flow cytometric analysis (reference value: 1.6 +/- 0.2 %); format: functional
[29] = Selectivity index, ratio of IC50 for human MRC5 cells to IC50 for human A2780 cells; format: toxicity; conditions: MRC5 cells versus A2780 cells, read-out: Ratio IC50
MCF7 [30] = assay: Induction of apoptosis in human MCF7 cells assessed as viable cells at 0.250 uM after 72 hrs by Annexin V-FITC/propidium iodide staining-based flow cytometric analysis (reference value: 86.4 %); format: functional; conditions: read-out: Activity
MCF7 [31] = assay: Cell cycle arrest in human MCF7 cells assessed as accumulation at S phase at 0.5 uM incubated for […] staining based flow cytometric analysis (reference value: […] +/- 2.6 %); format: functional
[32] = target: T1, ATP-dependent translocase ABCB1; assay: Inhibition of P-gp in human MCF7/ADR cells assessed as increase in Rho123 accumulation measured after 2 hrs by flow cytometry; format: cell-based; conditions: nci/adr-res
MRC5 = assay: Cytotoxicity against human MRC5 cells assessed as reduction in cell viability incubated for 72 hrs by MTT assay; conditions: MRC5, 72 h
A2780 = assay: Cytotoxicity against human A2780 cells assessed as reduction in cell viability incubated for 72 hrs by MTT assay; conditions: A2780, 72 h

## N#Cc1c2n(c3c(=O)n(-c4ccccc4)cnc13)CCCC2
NCI/ADR-RES [1]
  IC50: 6010 nM
MCF7 [2]
  Activity: 6.6%
MCF7 [3]
  Activity: 15.5%
MCF7 [4]
  Activity: 5.4%
[5]
  inhibition (INH): Dose-Dependent Effect
MCF7 [6]
  Activity: 61%
HT-29
  IC50: 1070 nM
MCF7 [7]
  Activity: 75.2%
MCF7 [8]
  Activity: 2.1%
[9]
  inhibition (INH): 176%
NCI/ADR-RES [10]
  CI: 1.7
MCF7 [11]
  Activity: 4.8%
MCF7 [12]
  viability at 0.125 µM: 86.3%
NCI/ADR-RES [13]
  CI: 1.552
MCF7 [14]
  Activity: 13.6%
[15]
  inhibition (INH): 190%
[16]
  selectivity ratio: 4.83
NCI/ADR-RES [17]
  CI: 0.211
NCI/ADR-RES [18]
  CI: 0.433
NCI/ADR-RES [19]
  CI: 0.08
[20]
  fold change (FC): 15.57
MCF7 [21]
  Activity: 18%
MCF7 [22]
  Activity: 1.6%
MCF7 [23]
  Activity: 18.9%
NCI/ADR-RES [24]
  IC50: 1170 nM
MCF7 [25]
  Activity: 1.2%
MCF7 [26]
  Activity: 1.7%
MCF7 [27]
  Activity: 22.8%
MCF7 [28]
  Activity: 1.6%
[29]
  selectivity ratio: 24.2
MCF7 [30]
  viability at 0.25 µM: 68.2%
MCF7 [31]
  Activity: 4.1%
[32]
  inhibition (INH): Dose-Dependent Effect
MRC5
  IC50: 1450 nM
A2780
  IC50: 60 nM
